# Measurements reported in ChEMBL document CHEMBL3885881, “DrugMatrix”.
# Species: Rattus norvegicus
# Assay: DrugMatrix - Regimen: Daily Repeat
# Format: toxicity, organism-based, Sprague-Dawley
# Parameters: regimen Daily Repeat, gender Male, age 6-8 weeks
# Details: in vivo, po, route oral GAVAGE, […]; for ABSOLUTE BASOPHIL / ABSOLUTE EOSINOPHIL / ABSOLUTE LYMPHOCYTE / ABSOLUTE MONOCYTE / ABSOLUTE SEGMENTED NEUTROPHIL / BASOPHIL / EOSINOPHIL / ERYTHROCYTE COUNT / HEMATOCRIT / HEMOGLOBIN / LEUKOCYTE COUNT / LYMPHOCYTE / MEAN CORPUSCULAR HEMOGLOBIN / MEAN CORPUSCULAR HEMOGLOBIN CONCENTRATION / MEAN CORPUSCULAR VOLUME / MONOCYTE / NEUTROPHIL / NUCLEATED RED BLOOD CELLS / PLATELET COUNT: tissue Blood; for ALANINE AMINOTRANSFERASE / ALBUMIN / ALKALINE PHOSPHATASE / ASPARTATE AMINOTRANSFERASE / BLOOD UREA NITROGEN / CARBON DIOXIDE / CHLORIDE / CHOLESTEROL / CREATINE PHOSPHOKINASE / CREATININE / GLUCOSE / LACTATE DEHYDROGENASE / LIPASE / PHOSPHORUS / POTASSIUM / SODIUM / TOTAL BILIRUBIN / TOTAL PROTEIN / URIC ACID: tissue Plasma
# [1] = 0 mg/kg, 72 h, dose level Control, time 3 day
# [2] = 0 mg/kg, 120 h, dose level Control, time 5 day
# [3] = 2 mg/kg, 72 h, dose level High, time 3 day
structure (smiles),measurement,setting,value
COc1ccc2c(c1)c(CC(=O)OCC(=O)O)c(C)n2C(=O)c1ccc(Cl)cc1 [ACEMETACIN],ABSOLUTE BASOPHIL,[1],0 CELLS/uL
same,ABSOLUTE EOSINOPHIL,[1],138.5 CELLS/uL
same,ABSOLUTE LYMPHOCYTE,[1],13978.67 CELLS/uL
same,ABSOLUTE MONOCYTE,[1],391 CELLS/uL
same,ABSOLUTE SEGMENTED NEUTROPHIL,[1],1608.5 CELLS/uL
same,BASOPHIL,[1],0%
same,EOSINOPHIL,[1],1%
same,ERYTHROCYTE COUNT,[1],5.8 x10E6/uL
same,HEMATOCRIT,[1],36.22%
same,HEMOGLOBIN,[1],13.65 G/DL
same,LEUKOCYTE COUNT,[1],16.12 x10E3/uL
same,LYMPHOCYTE,[1],86.67%
same,MEAN CORPUSCULAR HEMOGLOBIN,[1],23.58 pg
same,MEAN CORPUSCULAR HEMOGLOBIN CONCENTRATION,[1],37.72 G/DL
same,MEAN CORPUSCULAR VOLUME,[1],62.52 fL
same,MONOCYTE,[1],2.5%
same,NEUTROPHIL,[1],9.83%
same,NUCLEATED RED BLOOD CELLS,[1],0 /100WBC
same,PLATELET COUNT,[1],1214.17 x10E3/uL
same,ALANINE AMINOTRANSFERASE,[1],59.5 u/L
same,ALBUMIN,[1],4.1 G/DL
same,ALKALINE PHOSPHATASE,[1],393.83 u/L
same,ASPARTATE AMINOTRANSFERASE,[1],87.83 u/L
same,BLOOD UREA NITROGEN,[1],16.33 mg/dL
same,CARBON DIOXIDE,[1],28.17 mmol/L
same,CHLORIDE,[1],100.83 MEQ/L
same,CHOLESTEROL,[1],73.33 mg/dL
same,CREATINE PHOSPHOKINASE,[1],398 u/L
same,CREATININE,[1],0.2 mg/dL
same,GLUCOSE,[1],152.67 mg/dL
same,LACTATE DEHYDROGENASE,[1],501.5 u/L
same,LIPASE,[1],9.5 u/L
same,PHOSPHORUS,[1],10.77 mg/dL
same,POTASSIUM,[1],6.44 MEQ/L
same,SODIUM,[1],143.4 MEQ/L
same,TOTAL BILIRUBIN,[1],0.17 mg/dL
same,TOTAL PROTEIN,[1],5.92 G/DL
same,URIC ACID,[1],1.68 mg/dL
same,ABSOLUTE BASOPHIL,[2],0 CELLS/uL
same,ABSOLUTE EOSINOPHIL,[2],183.33 CELLS/uL
same,ABSOLUTE LYMPHOCYTE,[2],14952.83 CELLS/uL
same,ABSOLUTE MONOCYTE,[2],238.5 CELLS/uL
same,ABSOLUTE SEGMENTED NEUTROPHIL,[2],1642 CELLS/uL
same,BASOPHIL,[2],0%
same,EOSINOPHIL,[2],1%
same,ERYTHROCYTE COUNT,[2],5.89 x10E6/uL
same,HEMATOCRIT,[2],36.13%
same,HEMOGLOBIN,[2],13.37 G/DL
same,LEUKOCYTE COUNT,[2],17.02 x10E3/uL
same,LYMPHOCYTE,[2],87.17%
same,MEAN CORPUSCULAR HEMOGLOBIN,[2],22.73 pg
same,MEAN CORPUSCULAR HEMOGLOBIN CONCENTRATION,[2],37.02 G/DL
same,MEAN CORPUSCULAR VOLUME,[2],61.45 fL
same,MONOCYTE,[2],1.5%
same,NEUTROPHIL,[2],10.33%
same,NUCLEATED RED BLOOD CELLS,[2],0 /100WBC
same,PLATELET COUNT,[2],1183.5 x10E3/uL
same,ALANINE AMINOTRANSFERASE,[2],54.83 u/L
same,ALBUMIN,[2],4.28 G/DL
same,ALKALINE PHOSPHATASE,[2],363.17 u/L
same,ASPARTATE AMINOTRANSFERASE,[2],96.83 u/L
same,BLOOD UREA NITROGEN,[2],15.67 mg/dL
same,CARBON DIOXIDE,[2],26.17 mmol/L
same,CHLORIDE,[2],102.67 MEQ/L
same,CHOLESTEROL,[2],63.67 mg/dL
same,CREATINE PHOSPHOKINASE,[2],594.33 u/L
same,CREATININE,[2],0.2 mg/dL
same,GLUCOSE,[2],182.33 mg/dL
same,LACTATE DEHYDROGENASE,[2],656.5 u/L
same,LIPASE,[2],9.33 u/L
same,PHOSPHORUS,[2],11.7 mg/dL
same,POTASSIUM,[2],5.92 MEQ/L
same,SODIUM,[2],142.62 MEQ/L
same,TOTAL BILIRUBIN,[2],0.13 mg/dL
same,TOTAL PROTEIN,[2],5.85 G/DL
same,URIC ACID,[2],1.8 mg/dL
same,ABSOLUTE BASOPHIL,[3],0 CELLS/uL
same,ABSOLUTE EOSINOPHIL,[3],380 CELLS/uL
same,ABSOLUTE LYMPHOCYTE,[3],13622 CELLS/uL
same,ABSOLUTE MONOCYTE,[3],500 CELLS/uL
same,ABSOLUTE SEGMENTED NEUTROPHIL,[3],2164.67 CELLS/uL
same,BASOPHIL,[3],0%
same,EOSINOPHIL,[3],2.33%
same,ERYTHROCYTE COUNT,[3],5.07 x10E6/uL
same,HEMATOCRIT,[3],32.77%
same,HEMOGLOBIN,[3],12.63 G/DL
same,LEUKOCYTE COUNT,[3],16.67 x10E3/uL
same,LYMPHOCYTE,[3],81.67%
same,MEAN CORPUSCULAR HEMOGLOBIN,[3],24.97 pg
same,MEAN CORPUSCULAR HEMOGLOBIN CONCENTRATION,[3],38.57 G/DL
same,MEAN CORPUSCULAR VOLUME,[3],64.77 fL
same,MONOCYTE,[3],3%
same,NEUTROPHIL,[3],13%
same,NUCLEATED RED BLOOD CELLS,[3],0.33 /100WBC
same,PLATELET COUNT,[3],1026.67 x10E3/uL
same,ALANINE AMINOTRANSFERASE,[3],66.67 u/L
same,ALBUMIN,[3],4.07 G/DL
same,ALKALINE PHOSPHATASE,[3],414.67 u/L
same,ASPARTATE AMINOTRANSFERASE,[3],86 u/L
same,BLOOD UREA NITROGEN,[3],15 mg/dL
same,CARBON DIOXIDE,[3],28.67 mmol/L
same,CHLORIDE,[3],101.67 MEQ/L
same,CHOLESTEROL,[3],68 mg/dL
same,CREATINE PHOSPHOKINASE,[3],297.67 u/L
same,CREATININE,[3],0.19 mg/dL
same,GLUCOSE,[3],146.67 mg/dL
same,LACTATE DEHYDROGENASE,[3],197.67 u/L
same,LIPASE,[3],9.33 u/L
same,PHOSPHORUS,[3],10.4 mg/dL
same,POTASSIUM,[3],6.36 MEQ/L
same,SODIUM,[3],141.2 MEQ/L
same,TOTAL BILIRUBIN,[3],0.17 mg/dL
same,TOTAL PROTEIN,[3],5.47 G/DL
same,URIC ACID,[3],1.13 mg/dL
